Source: patent US20050112573A1, “Method of detecting toxic substance” (priority 2001, published 2005)

System: yeast genes (level of expressed mRNA)
Assay: DNA chip analysis of expressed mRNA of yeast genes after 2 h culture with a toxic chemical substance
Format: cell-based, Saccharomyces cerevisiae S288C
Procedure, shortened: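 Values are treated-to-control fluorescence ratios from a whole-yeast-genome DNA chip (65° C, over 12 h hybridization) using Cy3/Cy5-labelled cDNA from mRNA. Log-phase S288C cells in YPD at 25° C were exposed 2 h to a toxicant at sublethal, growth-inhibiting concentration.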

CdCl2 [(2)]
The level of expressed mRNA in the presence of chemical substance/ (yeast gene YNL074C, ratio to control without chemical substance, 2 h culture): 1.3
The level of expressed mRNA in the presence of chemical substance/ (yeast gene YNL092W, ratio to control without chemical substance, 2 h culture): 1.4
The level of expressed mRNA in the presence of chemical substance/The level of expressed mRNA in the absence of chemical substance (yeast gene YNL093W): 6.4
The level of expressed mRNA in the presence of chemical substance/ (yeast gene YNL115C, ratio to control without chemical substance, 2 h culture): 1.8
The level of expressed mRNA in the presence of chemical substance/ (yeast gene YNL156C, ratio to control without chemical substance, 2 h culture): 1.2
The level of expressed mRNA in the presence of chemical substance/ (yeast gene YNL234W, ratio to control without chemical substance, 2 h culture): 1.1
The level of expressed mRNA in the presence of chemical substance/ (yeast gene YNL281W, ratio to control without chemical): 1.3
The level of expressed mRNA in the presence of chemical substance/ (yeast gene YNL305C, ratio to control without chemical): 2.2
The level of expressed mRNA in the presence of chemical substance/The level of expressed mRNA in the absence of chemical substance (yeast gene YNL333W): 1.4
The level of expressed mRNA in the presence of chemical substance/The level of expressed mRNA in the absence of chemical substance (yeast gene YNR010W): 1.2
The level of expressed mRNA in the presence of chemical substance/ (yeast gene YNR068C, ratio to control without chemical): 1.5
The level of expressed mRNA in the presence of chemical substance/The level of expressed mRNA in the absence of chemical substance (yeast gene YNR069C): 1.3
The level of expressed mRNA in the presence of chemical substance/in the absence of chemical substance (yeast gene YNR072W): 1.5
The level of expressed mRNA in the presence of chemical substance/The level of expressed mRNA in the absence of chemical substance (yeast gene YOL013C): 1.0
The level of expressed mRNA in the presence of chemical substance/ (yeast gene YOL032W, ratio to control without chemical): 0.8
The level of expressed mRNA in the presence of chemical substance/ (yeast gene YOL036W, ratio to control without chemical): 0.9
The level of expressed mRNA in the presence of chemical substance/ (yeast gene YOL047C, ratio to control without chemical): 1.1
The level of expressed mRNA in the presence of chemical substance/ (yeast gene YOL071W, ratio to control without chemical): 2.0
The level of expressed mRNA in the presence of chemical substance/ (yeast gene YOL082W, ratio to control without chemical): 1.6
The level of expressed mRNA in the presence of chemical substance/ (yeast gene YOL083W, ratio to control without chemical): 2.3
The level of expressed mRNA in the presence of chemical substance/in the absence of chemical substance (yeast gene YOL096C): 1.0
The level of expressed mRNA in the presence of chemical substance/ (yeast gene YOL117W, ratio to control without chemical): 1.1
The level of expressed mRNA in the presence of chemical substance/ (yeast gene YOL131W, ratio to control without chemical): 1.5
The level of expressed mRNA in the presence of chemical substance/ (yeast gene YOL150C, ratio to control without chemical substance, 2 h culture): 3.7
The level of expressed mRNA in the presence of chemical substance/ (yeast gene YOL162W, ratio to control without chemical): 6.9
The level of expressed mRNA in the presence of chemical substance/The level of expressed mRNA in the absence of chemical substance (yeast gene YOL164W): 4.4
The level of expressed mRNA in the presence of chemical substance/ (yeast gene YOR019W, ratio to control without chemical): 1.2
The level of expressed mRNA in the presence of chemical substance/The level of expressed mRNA in the absence of chemical substance (yeast gene YOR036W): 0.9
The level of expressed mRNA in the presence of chemical substance/The level of expressed mRNA in the absence of chemical substance (yeast gene YOR117W): 1.3
The level of expressed mRNA in the presence of chemical substance/The level of expressed mRNA in the absence of chemical substance (yeast gene YOR124C): 1.1
The level of expressed mRNA in the presence of chemical substance/The level of expressed mRNA in the absence of chemical substance (yeast gene YOR132W): 1.6
The level of expressed mRNA in the presence of chemical substance/The level of expressed mRNA in the absence of chemical substance (yeast gene YOR157C): 1.3
The level of expressed mRNA in the presence of chemical substance/in the absence of chemical substance (yeast gene YOR180C): 1.1
The level of expressed mRNA in the presence of chemical substance/The level of expressed mRNA in the absence of chemical substance (yeast gene YOR181W): 0.9
The level of expressed mRNA in the presence of chemical substance/The level of expressed mRNA in the absence of chemical substance (yeast gene YOR185C): 1.3
The level of expressed mRNA in the presence of chemical substance/ (yeast gene YOR197W, ratio to control without chemical): 1.0
The level of expressed mRNA in the presence of chemical substance/The level of expressed mRNA in the absence of chemical substance (yeast gene YOR198C): 0.7
The level of expressed mRNA in the presence of chemical substance/The level of expressed mRNA in the absence of chemical substance (yeast gene YOR259C): 1.1
The level of expressed mRNA in the presence of chemical substance/The level of expressed mRNA in the absence of chemical substance (yeast gene YOR261C): 1.4
The level of expressed mRNA in the presence of chemical substance/The level of expressed mRNA in the absence of chemical substance (yeast gene YOR288C): 1.3
The level of expressed mRNA in the presence of chemical substance/The level of expressed mRNA in the absence of chemical substance (yeast gene YOR355W): 0.6
The level of expressed mRNA in the presence of chemical substance/in the absence of chemical substance (yeast gene YOR363C): 2.0
The level of expressed mRNA in the presence of chemical substance/The level of expressed mRNA in the absence of chemical substance (yeast gene YOR383C): 4.3
The level of expressed mRNA in the presence of chemical substance/ (yeast gene YPL087W, ratio to control without chemical): 5.1
The level of expressed mRNA in the presence of chemical substance/The level of expressed mRNA in the absence of chemical substance (yeast gene YPL089C): 1.0
The level of expressed mRNA in the presence of chemical substance/The level of expressed mRNA in the absence of chemical substance (yeast gene YPL109C): 2.5
The level of expressed mRNA in the presence of chemical substance/The level of expressed mRNA in the absence of chemical substance (yeast gene YPL149W): 1.5
The level of expressed mRNA in the presence of chemical substance/The level of expressed mRNA in the absence of chemical substance (yeast gene YPL154C): 3.3
The level of expressed mRNA in the presence of chemical substance/ (yeast gene YPL196W, ratio to control without chemical): 1.6
The level of expressed mRNA in the presence of chemical substance/ (yeast gene YPL206C, ratio to control without chemical): 2.9
The level of expressed mRNA in the presence of chemical substance/ (yeast gene YPL222W, ratio to control without chemical): 3.5
The level of expressed mRNA in the presence of chemical substance/ (yeast gene YPR023C, ratio to control without chemical): 1.4
The level of expressed mRNA in the presence of chemical substance/The level of expressed mRNA in the absence of chemical substance (yeast gene YPR103W): 1.1
The level of expressed mRNA in the presence of chemical substance/The level of expressed mRNA in the absence of chemical substance (yeast gene YPR108W): 1.0
The level of expressed mRNA in the presence of chemical substance/ (yeast gene YPR151C, ratio to control without chemical): 2.0
The level of expressed mRNA in the presence of chemical substance/in the absence of chemical substance (yeast gene YPR184W): 1.4
